Results: patent publication US20260022142A1, “MACROCYCLIC IMMUNOMODULATORS” (Bristol-Myers Squibb Company, priority 2022, published 2026)
Bridge positions count the residues as written; N and C are the ends. Square brackets hold non-standard residues; d marks the D form. Peptide text beside a SMILES is read from it. * marks the point of attachment. ξ: configuration not given here. Bip = N[C@@H](Cc1ccc(-c2ccccc2)cc1)C(=O)O; Phe(3-Me) = Cc1cccc(C[C@H](N)C(=O)O)c1; Phe(4-F) = N[C@@H](Cc1ccc(F)cc1)C(=O)O; Val(3-OH) = CC(C)(O)[C@H](N)C(=O)O; Cha = N[C@@H](CC1CCCCC1)C(=O)O; Ile(3ξ) = CCC(C)[C@H](N)C(=O)O; Thr(3ξ) = CC(O)[C@H](N)C(=O)O; Carboxymethyl = O=C(O)C*; Nle = CCCC[C@H](N)C(=O)O; Orn = NCCC[C@H](N)C(=O)O; Aun = NCCCCCCCCCCC(=O)O; Dab = NCC[C@H](N)C(=O)O; Nva = CCC[C@H](N)C(=O)O; AEEA = NCCOCCOCC(=O)O

Biological target: T1, PD-1/PD-L1 interaction (PE-labeled human PD-L1-Ig binding to Jurkat cell line over-expressing human PD-1) (Homo sapiens, UniProt Q15116)
T1 construct: expressed in transfected cells; host or cells: Jurkat
T1 sequence (Q15116 25-288): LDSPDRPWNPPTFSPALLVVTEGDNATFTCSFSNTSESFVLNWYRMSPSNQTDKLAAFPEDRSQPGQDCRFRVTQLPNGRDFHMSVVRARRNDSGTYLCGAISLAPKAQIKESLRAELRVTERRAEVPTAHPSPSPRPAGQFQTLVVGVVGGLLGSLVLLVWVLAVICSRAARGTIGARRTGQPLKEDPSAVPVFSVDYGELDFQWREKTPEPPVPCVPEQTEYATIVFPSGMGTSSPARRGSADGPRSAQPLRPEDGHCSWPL
Test: Jurkat-PD-1 Cell Binding High-Content Screening Assay (CBA)
Format: cell-based
Details: Jurkat cell line over-expressing human PD-1; PE-labeled PD-L1-Ig 20 nM final; read-out: Jurkat hPD1-PDL1 IC50
Outline: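 Human PD-L1-Ig carrying a covalent PE label on its Ig tag serves as the probe, applied at 20 nM final to compound-treated (2 h, 37° C) Jurkat-hPD-1 cells in medium with 10% fetal calf serum. After one hour, fixation and nuclear staining precede high-content image analysis.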

Row | IC50 | SMILES
1 | 5.8 nM | CCC[C@@H]1NC(=O)CSC[C@@H](C(=O)N[C@@H](CCN)C(=O)NCCCCCCCCCCC(=O)O)NC(=O)[C@H](CCC(=O)O)NC(=O)[C@H](C(C)(C)O)NC(=O)[C@H](CC2CCCCC2)NC(=O)[C@H](CCN)NC(=O)[C@@H](CC(C)C)NC(=O)[C@H](CCCN)NC(=O)[C@H](Cc2ccc(OCC(=O)O)cc2)NC(=O)[C@H](Cc2ccc(-c3ccccc3)cc2)NC(=O)[C@H](Cc2ccc(OCC(=O)O)cc2)NC(=O)[C@H](Cc2cccc(C)c2)NC(=O)[C@H](CC(=O)O)NC(=O)[C@H](Cc2ccc(OCC(=O)O)cc2)NC1=O [Compound 3795] ({CH2CO}-[Nva]Y(Carboxymethyl)D[Phe(3-Me)]Y(Carboxymethyl)[Bip]Y(Carboxymethyl)[Orn][dL][Dab][Cha][Val(3-OH)]EC[Dab][Aun]-OH; thioether N-14)
2 | 1.9 nM | CCCC[C@@H]1NC(=O)CSC[C@@H](C(=O)N[C@@H](CCN)C(=O)NCCCCCCCCCCC(=O)O)NC(=O)[C@H](CCC(=O)O)NC(=O)[C@H](C(C)(C)O)NC(=O)[C@H](CC2CCCCC2)NC(=O)[C@H](CCN)NC(=O)[C@@H](CC(C)C)NC(=O)[C@H](CCCN)NC(=O)[C@H](Cc2ccc(OCC(=O)O)cc2)NC(=O)[C@H](Cc2ccc(-c3ccccc3)cc2)NC(=O)[C@H](Cc2ccc(OCC(=O)O)cc2)NC(=O)[C@H](Cc2cccc(C)c2)NC(=O)[C@H](CC(=O)O)NC(=O)[C@H](Cc2ccc(OCC(=O)O)cc2)NC1=O [Compound 3796] ({CH2CO}-[Nle]Y(Carboxymethyl)D[Phe(3-Me)]Y(Carboxymethyl)[Bip]Y(Carboxymethyl)[Orn][dL][Dab][Cha][Val(3-OH)]EC[Dab][Aun]-OH; thioether N-14)
3 | 2.1 nM | Cc1cccc(C[C@@H]2NC(=O)[C@H](CC(=O)O)NC(=O)[C@H](Cc3ccc(OCC(=O)O)cc3)NC(=O)[C@H](CCN)NC(=O)CSC[C@@H](C(=O)N[C@@H](CCN)C(=O)NCCOCCOCC(=O)NCCCCCCCCCCC(=O)O)NC(=O)[C@H](CCC(=O)O)NC(=O)[C@H](C(C)O)NC(=O)[C@H](CC3CCCCC3)NC(=O)[C@H](CCN)NC(=O)[C@@H](CC(C)C)NC(=O)[C@H](CCCN)NC(=O)[C@H](Cc3ccc(OCC(=O)O)cc3)NC(=O)[C@H](Cc3ccc(-c4ccccc4)cc3)NC(=O)[C@H](Cc3ccc(OCC(=O)O)cc3)NC2=O)c1 (stereo partly drawn) [Compound 3797] ({CH2CO}-[Dab]Y(Carboxymethyl)D[Phe(3-Me)]Y(Carboxymethyl)[Bip]Y(Carboxymethyl)[Orn][dL][Dab][Cha][Thr(3ξ)]EC[Dab][AEEA][Aun]-OH; thioether N-14)
4 | 28.4 nM | Cc1cccc(C[C@@H]2NC(=O)[C@H](CC(=O)O)NC(=O)[C@H](Cc3ccc(OCC(=O)O)cc3)NC(=O)[C@H](Cc3ccc(F)cc3)NC(=O)CSC[C@@H](C(=O)N[C@@H](CCN)C(=O)NCCCCCCCCCCC(=O)O)NC(=O)[C@H](Cc3cnc[nH]3)NC(=O)[C@H](C(C)(C)O)NC(=O)[C@H](CC3CCCCC3)NC(=O)[C@H](CCN)NC(=O)[C@@H](CC(C)C)NC(=O)[C@H](CCCN)NC(=O)[C@H](Cc3ccc(OCC(=O)O)cc3)NC(=O)[C@H](Cc3ccc(-c4ccccc4)cc3)NC(=O)[C@H](Cc3ccc(OCC(=O)O)cc3)NC2=O)c1 [Compound 3798] ({CH2CO}-[Phe(4-F)]Y(Carboxymethyl)D[Phe(3-Me)]Y(Carboxymethyl)[Bip]Y(Carboxymethyl)[Orn][dL][Dab][Cha][Val(3-OH)]HC[Dab][Aun]-OH; thioether N-14)
5 | 11.1 nM | Cc1cccc(C[C@@H]2NC(=O)[C@H](CC(=O)O)NC(=O)[C@H](Cc3ccc(OCC(=O)O)cc3)NC(=O)[C@H](Cc3ccc(F)cc3)NC(=O)CSC[C@@H](C(=O)N[C@@H](CCN)C(=O)NCCOCCOCC(=O)NCCCCCCCCCCC(=O)O)NC(=O)[C@H](CC(=O)O)NC(=O)[C@H](C(C)C)NC(=O)[C@H](CC3CCCCC3)NC(=O)[C@H](CCN)NC(=O)[C@@H](CC(C)C)NC(=O)[C@H](CCCN)NC(=O)[C@H](Cc3ccc(OCC(=O)O)cc3)NC(=O)[C@H](Cc3ccc(-c4ccccc4)cc3)NC(=O)[C@H](Cc3ccc(OCC(=O)O)cc3)NC2=O)c1 [Compound 3799] ({CH2CO}-[Phe(4-F)]Y(Carboxymethyl)D[Phe(3-Me)]Y(Carboxymethyl)[Bip]Y(Carboxymethyl)[Orn][dL][Dab][Cha]VDC[Dab][AEEA][Aun]-OH; thioether N-14)
6 | 12.1 nM | Cc1cccc(C[C@@H]2NC(=O)[C@H](CC(=O)O)NC(=O)[C@H](Cc3ccc(OCC(=O)O)cc3)NC(=O)[C@H](Cc3ccc(F)cc3)NC(=O)CSC[C@@H](C(=O)N[C@@H](CCN)C(=O)NCCOCCOCC(=O)NCCCCCCCCCCC(=O)O)NC(=O)[C@H](CCC(=O)O)NC(=O)[C@H](C(C)C)NC(=O)[C@H](CC3CCCCC3)NC(=O)[C@H](CCN)NC(=O)[C@@H](CC(C)C)NC(=O)[C@H](CCCN)NC(=O)[C@H](Cc3ccc(OCC(=O)O)cc3)NC(=O)[C@H](Cc3ccc(-c4ccccc4)cc3)NC(=O)[C@H](Cc3ccc(OCC(=O)O)cc3)NC2=O)c1 [Compound 3800] ({CH2CO}-[Phe(4-F)]Y(Carboxymethyl)D[Phe(3-Me)]Y(Carboxymethyl)[Bip]Y(Carboxymethyl)[Orn][dL][Dab][Cha]VEC[Dab][AEEA][Aun]-OH; thioether N-14)
7 | 2.5 nM | Cc1cccc(C[C@@H]2NC(=O)[C@H](CC(=O)O)NC(=O)[C@H](Cc3ccc(OCC(=O)O)cc3)NC(=O)[C@H](CCN)NC(=O)CSC[C@@H](C(=O)N[C@@H](CCN)C(=O)NCCOCCOCC(=O)NCCCCCCCCCCC(=O)O)NC(=O)[C@H](CC(=O)O)NC(=O)[C@H](C(C)C)NC(=O)[C@H](CC3CCCCC3)NC(=O)[C@H](CCN)NC(=O)[C@@H](CC(C)C)NC(=O)[C@H](CCCN)NC(=O)[C@H](Cc3ccc(OCC(=O)O)cc3)NC(=O)[C@H](Cc3ccc(-c4ccccc4)cc3)NC(=O)[C@H](Cc3ccc(OCC(=O)O)cc3)NC2=O)c1 [Compound 3801] ({CH2CO}-[Dab]Y(Carboxymethyl)D[Phe(3-Me)]Y(Carboxymethyl)[Bip]Y(Carboxymethyl)[Orn][dL][Dab][Cha]VDC[Dab][AEEA][Aun]-OH; thioether N-14)
8 | 36.6 nM | CCC(C)[C@@H]1NC(=O)[C@H](Cc2ccc(-c3ccccc3)cc2)NC(=O)[C@H](C(C)C)NC(=O)[C@H](Cc2c[nH]c3ccccc23)NC(=O)[C@H](CC(=O)O)NC(=O)[C@H](Cc2ccc(OCC(=O)O)cc2)NC(=O)[C@H](Cc2ccc(F)cc2)NC(=O)CSC[C@@H](C(=O)N[C@@H](CCN)C(=O)NCCOCCOCC(=O)NCCCCCCCCCCC(=O)O)NC(=O)[C@H](CC(=O)O)NC(=O)[C@H](C(C)O)NC(=O)[C@H](CC2CCCCC2)NC(=O)[C@H](CCN)NC(=O)[C@@H](CC(C)C)NC(=O)[C@H](CCCN)NC1=O (stereo partly drawn) [Compound 3802] ({CH2CO}-[Phe(4-F)]Y(Carboxymethyl)DWV[Bip][Ile(3ξ)][Orn][dL][Dab][Cha][Thr(3ξ)]DC[Dab][AEEA][Aun]-OH; thioether N-14)
9 | 2.7 nM | CCC[C@@H]1NC(=O)CSC[C@@H](C(=O)N[C@@H](CCN)C(=O)NCCOCCOCC(=O)NCCCCCCCCCCC(=O)O)NC(=O)[C@H](Cc2cnc[nH]2)NC(=O)[C@H](C(C)C)NC(=O)[C@H](CC2CCCCC2)NC(=O)[C@H](CCN)NC(=O)[C@@H](CC(C)C)NC(=O)[C@H](CCCN)NC(=O)[C@H](Cc2ccc(OCC(=O)O)cc2)NC(=O)[C@H](Cc2ccc(-c3ccccc3)cc2)NC(=O)[C@H](Cc2ccc(OCC(=O)O)cc2)NC(=O)[C@H](Cc2cccc(C)c2)NC(=O)[C@H](CC(=O)O)NC(=O)[C@H](Cc2ccc(OCC(=O)O)cc2)NC1=O [Compound 3803] ({CH2CO}-[Nva]Y(Carboxymethyl)D[Phe(3-Me)]Y(Carboxymethyl)[Bip]Y(Carboxymethyl)[Orn][dL][Dab][Cha]VHC[Dab][AEEA][Aun]-OH; thioether N-14)
10 | 0.2 nM | CCC[C@@H]1NC(=O)CSC[C@@H](C(=O)N[C@@H](CCN)C(=O)NCCOCCOCC(=O)NCCCCCCCCCCC(=O)O)NC(=O)[C@H](CC(=O)O)NC(=O)[C@H](C(C)C)NC(=O)[C@H](CC2CCCCC2)NC(=O)[C@H](CCN)NC(=O)[C@@H](CC(C)C)NC(=O)[C@H](CCCN)NC(=O)[C@H](Cc2ccc(OCC(=O)O)cc2)NC(=O)[C@H](Cc2ccc(-c3ccccc3)cc2)NC(=O)[C@H](Cc2ccc(OCC(=O)O)cc2)NC(=O)[C@H](Cc2cccc(C)c2)NC(=O)[C@H](CC(=O)O)NC(=O)[C@H](Cc2ccc(OCC(=O)O)cc2)NC1=O [Compound 3804] ({CH2CO}-[Nva]Y(Carboxymethyl)D[Phe(3-Me)]Y(Carboxymethyl)[Bip]Y(Carboxymethyl)[Orn][dL][Dab][Cha]VDC[Dab][AEEA][Aun]-OH; thioether N-14)
11 | 1.2 nM | Cc1cccc(C[C@@H]2NC(=O)[C@H](CC(=O)O)NC(=O)[C@H](Cc3ccc(OCC(=O)O)cc3)NC(=O)[C@H](CCN)NC(=O)CSC[C@@H](C(=O)N[C@@H](CCN)C(=O)NCCOCCOCC(=O)NCCCCCCCCCCC(=O)O)NC(=O)[C@H](Cc3cnc[nH]3)NC(=O)[C@H](C(C)O)NC(=O)[C@H](CC3CCCCC3)NC(=O)[C@H](CCN)NC(=O)[C@@H](CC(C)C)NC(=O)[C@H](CCCN)NC(=O)[C@H](Cc3ccc(OCC(=O)O)cc3)NC(=O)[C@H](Cc3ccc(-c4ccccc4)cc3)NC(=O)[C@H](Cc3ccc(OCC(=O)O)cc3)NC2=O)c1 (stereo partly drawn) [Compound 3805] ({CH2CO}-[Dab]Y(Carboxymethyl)D[Phe(3-Me)]Y(Carboxymethyl)[Bip]Y(Carboxymethyl)[Orn][dL][Dab][Cha][Thr(3ξ)]HC[Dab][AEEA][Aun]-OH; thioether N-14)
12 | 5.2 nM | Cc1cccc(C[C@@H]2NC(=O)[C@H](CC(=O)O)NC(=O)[C@H](Cc3ccc(OCC(=O)O)cc3)NC(=O)[C@H](C(C)O)NC(=O)CSC[C@@H](C(=O)N[C@@H](CCN)C(=O)NCCOCCOCC(=O)NCCCCCCCCCCC(=O)O)NC(=O)[C@H](CCC(=O)O)NC(=O)[C@H](C(C)C)NC(=O)[C@H](CC3CCCCC3)NC(=O)[C@H](CCN)NC(=O)[C@@H](CC(C)C)NC(=O)[C@H](CCCN)NC(=O)[C@H](Cc3ccc(OCC(=O)O)cc3)NC(=O)[C@H](Cc3ccc(-c4ccccc4)cc3)NC(=O)[C@H](Cc3ccc(OCC(=O)O)cc3)NC2=O)c1 (stereo partly drawn) [Compound 3806] ({CH2CO}-[Thr(3ξ)]Y(Carboxymethyl)D[Phe(3-Me)]Y(Carboxymethyl)[Bip]Y(Carboxymethyl)[Orn][dL][Dab][Cha]VEC[Dab][AEEA][Aun]-OH; thioether N-14)
